Holding throughout (type): biochemical
In one assay the target is T1, TYK2 (Homo sapiens, UniProt P29597).
T1 construct: purchased Invitrogen
Briefly: TYK2 enzyme inhibition test (LANCE method). Particulars: 1 μM test compound; read-out: TYK2 enzyme inhibitory activity (%, 1 μM). The gist of the method: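 TR-FRET (LANCE) readout: after 1 h room-temperature kinase reaction, EDTA plus 4 nM Eu-labelled anti-phosphotyrosine antibody added, signal at 665 nm (340 nm excitation). Reaction combined TYK2, ULight-JAK1 substrate and ATP, prepared at 375 ng/mL, 300 nM and 30 μM before addition, in pH 7.5 HEPES/MgCl2 buffer; enzyme-free wells define full inhibition.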
For orientation: In TR-FRET formats the signal depends on donor and acceptor labels being close together.

For a further assay, the target named is T2, JAK2 (Homo sapiens, UniProt O60674).
T2 construct: purchased Invitrogen
Briefly: JAK2 enzyme inhibition test (LANCE method). Particulars: 1 μM test compound; read-out: JAK2 enzyme inhibitory activity (%, 1 μM). The gist of the method:
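TR-FRET (LANCE) read-out, ex 340/em 665 nm with 100 μs delay, after 1 hr room-temperature detection with europium anti-phosphotyrosine antibody and 20 mM EDTA. The preceding 1 hr kinase reaction combined JAK2, ULight-JAK1 substrate and ATP, added as 6 ng/mL, 300 nM and 45 μM solutions; enzyme-free wells defined 100% inhibition.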

The next assay addresses T3, JAK1 (Homo sapiens, UniProt P23458).
T3 construct: purchased Invitrogen
The assay is described as follows: JAK1 enzyme inhibition test (LANCE method). Particulars: 1 μM test compound; read-out: JAK1 enzyme inhibitory activity (%, 1 μM). The gist of the method: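 Inhibition expressed against no-enzyme wells (100% inhibition), from time-resolved fluorescence at 665 nm after Eu-anti-phosphotyrosine antibody/EDTA detection. Kinase reaction ran 1 h at room temperature, pH 7.5 HEPES buffer, ULight-JAK1 substrate and ATP diluted to 300 nM and 150 μM before addition.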

For another assay, the target named is T4, JAK3 (Homo sapiens, UniProt P52333).
T4 construct: purchased Invitrogen
T4 sequence (P52333 1-1124): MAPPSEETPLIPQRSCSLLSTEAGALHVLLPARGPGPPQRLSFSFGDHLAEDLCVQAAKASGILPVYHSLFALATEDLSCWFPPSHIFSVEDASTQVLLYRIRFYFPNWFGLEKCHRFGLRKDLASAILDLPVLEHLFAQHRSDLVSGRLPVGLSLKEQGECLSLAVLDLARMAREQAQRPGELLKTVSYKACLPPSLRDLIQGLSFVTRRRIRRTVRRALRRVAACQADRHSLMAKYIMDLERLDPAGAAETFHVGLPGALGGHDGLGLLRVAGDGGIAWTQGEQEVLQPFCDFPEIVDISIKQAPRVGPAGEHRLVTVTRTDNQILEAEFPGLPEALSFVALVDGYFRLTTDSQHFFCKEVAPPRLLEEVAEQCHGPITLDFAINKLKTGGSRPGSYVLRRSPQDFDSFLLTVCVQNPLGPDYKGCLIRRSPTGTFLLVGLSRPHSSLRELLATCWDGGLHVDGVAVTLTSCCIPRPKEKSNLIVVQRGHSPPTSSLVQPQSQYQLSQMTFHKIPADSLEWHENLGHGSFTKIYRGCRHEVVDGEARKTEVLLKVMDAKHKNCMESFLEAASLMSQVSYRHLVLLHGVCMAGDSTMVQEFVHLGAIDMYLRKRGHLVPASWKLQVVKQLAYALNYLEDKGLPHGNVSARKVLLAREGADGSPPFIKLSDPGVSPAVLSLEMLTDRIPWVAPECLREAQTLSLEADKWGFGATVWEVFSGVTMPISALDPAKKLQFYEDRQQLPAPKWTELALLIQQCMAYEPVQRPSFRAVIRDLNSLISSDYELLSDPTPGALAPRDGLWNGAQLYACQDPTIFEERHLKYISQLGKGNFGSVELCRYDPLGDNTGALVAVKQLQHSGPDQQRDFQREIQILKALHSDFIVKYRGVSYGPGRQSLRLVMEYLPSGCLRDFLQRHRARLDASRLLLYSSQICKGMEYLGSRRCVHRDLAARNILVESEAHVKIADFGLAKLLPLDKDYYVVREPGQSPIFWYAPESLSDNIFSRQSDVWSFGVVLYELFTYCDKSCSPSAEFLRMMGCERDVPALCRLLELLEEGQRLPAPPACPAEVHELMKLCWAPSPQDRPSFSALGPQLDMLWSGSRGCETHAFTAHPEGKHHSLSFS
The assay is described as follows: JAK3 enzyme inhibition test (LANCE method). The note with it: 1 μM test compound; read-out: JAK3 enzyme inhibitory activity (%, 1 μM). The essentials: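 TR-FRET (LANCE) read: 1 h room-temperature reaction, EDTA quench, Eu-anti-phosphotyrosine antibody, emission 665 nm after 340 nm excitation. Added solutions held 12 ng/mL JAK3, 300 nM ULight-JAK1 substrate and 15 μM ATP (pH 7.5 HEPES). Activity expressed against no-enzyme wells defined as full inhibition.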

T1 sequence (P29597 whole entry): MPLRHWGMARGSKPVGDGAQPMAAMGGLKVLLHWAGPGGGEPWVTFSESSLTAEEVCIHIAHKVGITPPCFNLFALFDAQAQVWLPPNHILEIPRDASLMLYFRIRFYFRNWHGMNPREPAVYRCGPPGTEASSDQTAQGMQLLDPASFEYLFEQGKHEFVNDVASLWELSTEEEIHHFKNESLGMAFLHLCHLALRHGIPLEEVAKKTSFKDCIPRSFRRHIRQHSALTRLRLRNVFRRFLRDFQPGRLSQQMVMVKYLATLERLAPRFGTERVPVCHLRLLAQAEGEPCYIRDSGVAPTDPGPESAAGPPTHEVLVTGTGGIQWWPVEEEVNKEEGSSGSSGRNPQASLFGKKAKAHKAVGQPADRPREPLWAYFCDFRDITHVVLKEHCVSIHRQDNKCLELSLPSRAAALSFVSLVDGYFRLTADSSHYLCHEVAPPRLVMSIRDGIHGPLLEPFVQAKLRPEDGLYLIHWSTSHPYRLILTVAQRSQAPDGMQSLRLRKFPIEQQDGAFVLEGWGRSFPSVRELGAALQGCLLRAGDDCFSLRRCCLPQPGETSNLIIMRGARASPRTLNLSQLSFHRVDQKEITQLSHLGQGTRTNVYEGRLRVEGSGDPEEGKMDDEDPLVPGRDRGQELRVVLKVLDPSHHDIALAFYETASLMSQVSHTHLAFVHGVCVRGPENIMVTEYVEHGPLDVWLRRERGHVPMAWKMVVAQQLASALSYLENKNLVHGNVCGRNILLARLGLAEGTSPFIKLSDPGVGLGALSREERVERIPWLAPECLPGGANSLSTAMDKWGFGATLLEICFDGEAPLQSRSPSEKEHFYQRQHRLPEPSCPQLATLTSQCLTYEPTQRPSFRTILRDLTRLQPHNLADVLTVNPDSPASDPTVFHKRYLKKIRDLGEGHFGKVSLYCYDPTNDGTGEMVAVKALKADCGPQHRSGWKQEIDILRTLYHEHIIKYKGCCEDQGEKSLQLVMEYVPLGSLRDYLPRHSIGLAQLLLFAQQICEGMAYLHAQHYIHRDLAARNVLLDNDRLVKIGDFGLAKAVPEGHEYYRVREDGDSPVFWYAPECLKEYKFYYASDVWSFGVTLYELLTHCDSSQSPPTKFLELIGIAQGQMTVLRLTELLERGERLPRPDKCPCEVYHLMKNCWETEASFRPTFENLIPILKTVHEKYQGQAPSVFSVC
T2 sequence (O60674 whole entry): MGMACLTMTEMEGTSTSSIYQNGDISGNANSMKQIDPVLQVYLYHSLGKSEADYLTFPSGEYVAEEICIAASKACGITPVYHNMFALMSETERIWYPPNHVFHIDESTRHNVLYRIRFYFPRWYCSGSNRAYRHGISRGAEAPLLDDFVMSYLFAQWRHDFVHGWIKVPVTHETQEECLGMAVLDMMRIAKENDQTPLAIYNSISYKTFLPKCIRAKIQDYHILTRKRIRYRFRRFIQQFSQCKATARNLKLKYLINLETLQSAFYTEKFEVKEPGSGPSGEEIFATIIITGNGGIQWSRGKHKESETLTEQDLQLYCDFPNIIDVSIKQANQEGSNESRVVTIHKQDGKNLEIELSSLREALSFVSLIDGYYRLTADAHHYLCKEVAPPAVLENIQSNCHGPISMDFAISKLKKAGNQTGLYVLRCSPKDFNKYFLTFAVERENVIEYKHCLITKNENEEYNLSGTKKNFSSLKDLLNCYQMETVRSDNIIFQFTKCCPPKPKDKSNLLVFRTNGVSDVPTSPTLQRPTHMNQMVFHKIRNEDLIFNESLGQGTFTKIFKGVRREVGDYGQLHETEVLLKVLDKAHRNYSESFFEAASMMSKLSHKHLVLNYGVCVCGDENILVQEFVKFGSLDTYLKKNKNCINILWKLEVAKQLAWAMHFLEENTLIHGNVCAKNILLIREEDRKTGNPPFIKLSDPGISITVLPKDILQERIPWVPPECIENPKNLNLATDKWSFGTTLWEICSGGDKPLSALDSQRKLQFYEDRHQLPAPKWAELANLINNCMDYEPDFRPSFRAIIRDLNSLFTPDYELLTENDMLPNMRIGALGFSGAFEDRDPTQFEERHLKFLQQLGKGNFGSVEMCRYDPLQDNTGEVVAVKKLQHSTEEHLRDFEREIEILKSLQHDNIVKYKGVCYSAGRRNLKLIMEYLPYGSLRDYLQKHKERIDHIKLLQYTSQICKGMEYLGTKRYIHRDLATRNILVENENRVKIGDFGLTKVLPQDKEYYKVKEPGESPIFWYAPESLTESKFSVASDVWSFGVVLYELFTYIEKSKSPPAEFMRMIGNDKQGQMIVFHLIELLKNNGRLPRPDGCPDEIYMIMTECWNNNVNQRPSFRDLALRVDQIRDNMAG
T3 sequence (P23458 whole entry): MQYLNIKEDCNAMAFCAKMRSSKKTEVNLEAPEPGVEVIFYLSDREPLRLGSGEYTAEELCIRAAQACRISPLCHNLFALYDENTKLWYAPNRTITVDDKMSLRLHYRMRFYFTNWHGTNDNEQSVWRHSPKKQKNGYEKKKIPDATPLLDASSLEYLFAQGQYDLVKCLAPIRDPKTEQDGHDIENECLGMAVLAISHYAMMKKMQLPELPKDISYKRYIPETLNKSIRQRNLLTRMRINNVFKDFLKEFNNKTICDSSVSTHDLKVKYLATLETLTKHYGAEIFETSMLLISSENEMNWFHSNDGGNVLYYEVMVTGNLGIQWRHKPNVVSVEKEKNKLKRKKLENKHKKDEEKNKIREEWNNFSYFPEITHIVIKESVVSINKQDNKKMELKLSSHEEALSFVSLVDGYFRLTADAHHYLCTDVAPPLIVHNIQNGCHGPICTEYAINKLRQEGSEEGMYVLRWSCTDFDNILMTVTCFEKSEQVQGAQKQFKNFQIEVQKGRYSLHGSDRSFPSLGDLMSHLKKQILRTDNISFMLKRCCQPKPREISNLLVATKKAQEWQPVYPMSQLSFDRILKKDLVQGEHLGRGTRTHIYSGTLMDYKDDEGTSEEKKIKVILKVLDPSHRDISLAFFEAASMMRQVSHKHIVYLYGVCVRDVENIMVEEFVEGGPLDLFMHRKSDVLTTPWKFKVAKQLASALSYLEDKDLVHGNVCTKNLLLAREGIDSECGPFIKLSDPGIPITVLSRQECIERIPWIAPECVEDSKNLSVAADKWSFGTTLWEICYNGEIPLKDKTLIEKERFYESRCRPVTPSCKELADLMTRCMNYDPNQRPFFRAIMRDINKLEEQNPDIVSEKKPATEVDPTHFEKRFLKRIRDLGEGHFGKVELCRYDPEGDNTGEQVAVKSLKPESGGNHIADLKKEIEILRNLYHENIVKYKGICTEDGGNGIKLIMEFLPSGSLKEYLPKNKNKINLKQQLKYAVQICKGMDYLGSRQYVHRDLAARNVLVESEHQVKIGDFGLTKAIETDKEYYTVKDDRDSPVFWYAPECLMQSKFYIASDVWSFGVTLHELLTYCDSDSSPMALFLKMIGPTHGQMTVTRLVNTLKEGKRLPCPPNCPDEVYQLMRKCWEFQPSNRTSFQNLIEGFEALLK

Turning to `CO[C@@H]1CCN(c2cc(-c3cn([C@@H](C)C(C)C)c(=O)c4c(N)n[nH]c34)nn2C)C1` [Example 24, 3-amino-7-(5-((3R)-3-methoxypyrrolidin-1-yl)-1-methyl-1H-pyrazol-3-yl)-5-((2S)-3-methylbutan-2-yl)-1,5-dihydro-4H-pyrazolo[4,3-c]pyridin-4-one], the inhibition at 1 µM at TYK2 worked out at 100%; on JAK2, 98%; at JAK1, 96%; on JAK3 it was 99%.
The matching figures for `Cn1nc(-c2cn(C(C3CC3)C3CC3)c(=O)c3c(N)n[nH]c23)cc1N1CCOCC1` [Example 79, 3-amino-5-(dicyclopropylmethyl)-7-(1-methyl-5-(morpholin-4-yl)-1H-pyrazol-3-yl)-1,5-dihydro-4H-pyrazolo[4,3-c]pyridin-4-one]: 99%, 99%, 99% and 100%.
On to `CC(C)[C@H](C)n1cc(-c2cc(C(C)(C)O)n(C)n2)c2[nH]nc(N)c2c1=O` [Example 1, 3-amino-7-(5-(2-hydroxypropan-2-yl)-1-methyl-1H-pyrazol-3-yl)-5-((2S)-3-methylbutan-2-yl)-1,5-dihydro-4H-pyrazolo[4,3-c]pyridin-4-one], for which the inhibition at 1 µM at TYK2 is 99%; on JAK2, 98%; at JAK1 it was 97%; on JAK3, 100%.
As for `CCn1nc(-c2cn([C@@H](C)C(C)C)c(=O)c3c(N)n[nH]c23)cc1N1CCS(=O)(=O)CC1` [Example 28, 3-amino-7-(5-(1,1-dioxidothiomorpholin-4-yl)-1-ethyl-1H-pyrazol-3-yl)-5-((2S)-3-methylbutan-2-yl)-1,5-dihydro-4H-pyrazolo[4,3-c]pyridin-4-one], the inhibition at 1 µM on TYK2 was determined as 98%; at JAK2, 90%; at JAK1 it was 78%; on JAK3 it was 95%.
Consider `Cn1nc(-c2cn(C(C3CC3)C3CC3)c(=O)c3c(N)n[nH]c23)cc1N1CCC[C@H]1CO` [Example 168, 3-amino-5-(dicyclopropylmethyl)-7-(5-((2S)-2-(hydroxymethyl)pyrrolidin-1-yl)-1-methyl-1H-pyrazol-3-yl)-1,5-dihydro-4H-pyrazolo[4,3-c]pyridin-4-one], for which the inhibition at 1 µM turned out to be 101% at TYK2, 94% on JAK2, 98% on JAK1 and 100% on JAK3.
The matching figures for `CC(C)[C@H](C)n1cc(-c2cc(C3CC3)n(C)n2)c2[nH]nc(N)c2c1=O` [Example 43, 3-amino-7-(5-cyclopropyl-1-methyl-1H-pyrazol-3-yl)-5-((2S)-3-methylbutan-2-yl)-1,5-dihydro-4H-pyrazolo[4,3-c]pyridin-4-one]: 100%, 97%, 97% and 99%.
The matching figures for `CC(C)[C@H](C)n1cc(-c2cc(N(C)C(C)C)n(C)n2)c2[nH]nc(N)c2c1=O` [Example 101, 3-amino-7-(5-(isopropyl(methyl)amino)-1-methyl-1H-pyrazol-3-yl)-5-((2S)-3-methylbutan-2-yl)-1,5-dihydro-4H-pyrazolo[4,3-c]pyridin-4-one]: 100%, 97%, 96% and 99%.
The matching figures for `COC1(c2cc(-c3cn(-c4c(F)cccc4F)c(=O)c4c(N)n[nH]c34)nn2C)CCS(=O)(=O)CC1` [Example 129, 3-amino-5-(2,6-difluorophenyl)-7-(5-(4-methoxy-1,1-dioxidotetrahydro-2H-thiopyran-4-yl)-1-methyl-1H-pyrazol-3-yl)-1,5-dihydro-4H-pyrazolo[4,3-c]pyridin-4-one]: 100%, 99%, 97% and 99%.
As for `CN(C[C@H]1CCCN1c1cc(-c2cn(C(C3CC3)C3CC3)c(=O)c3c(N)n[nH]c23)nn1C)C(=O)OC(C)(C)C` [Example 171, tert-butyl(((2R)-1-(3-(3-amino-5-(dicyclopropylmethyl)-4-oxo-4,5-dihydro-1H-pyrazolo[4,3-c]pyridin-7-yl)-1-methyl-1H-pyrazol-5-yl)pyrrolidin-2-yl)methyl)methylcarbamate], the inhibition at 1 µM on TYK2 came to 98%; at JAK2, 94%; on JAK1, 93%; on JAK3, 98%.
`CC(C)[C@H](C)n1cc(-c2cc(N3CCS(=O)(=O)CC3)n(C)n2)c2[nH]nc(N)c2c1=O` [Example 12, 3-amino-7-(5-(1,1-dioxidothiomorpholin-4-yl)-1-methyl-1H-pyrazol-3-yl)-5-((2S)-3-methylbutan-2-yl)-1,5-dihydro-4H-pyrazolo[4,3-c]pyridin-4-one]: the inhibition at 1 µM was 100% at TYK2, 99% at JAK2, 93% on JAK1 and 99% at JAK3.
With `Cn1nc(-c2cn(-c3c(F)cccc3F)c(=O)c3c(N)n[nH]c23)cc1N1CCOCC1` [Example 143, 3-amino-5-(2,6-difluorophenyl)-7-(1-methyl-5-(morpholin-4-yl)-1H-pyrazol-3-yl)-1,5-dihydro-4H-pyrazolo[4,3-c]pyridin-4-one], the inhibition at 1 µM on TYK2 came out at 100%; on JAK2, 98%; on JAK1, 99%; on JAK3, 99%.
Consider `CC(C)[C@H](C)n1cc(-c2cc(N3CCN(S(C)(=O)=O)CC3)n(C)n2)c2[nH]nc(N)c2c1=O` [Example 108, 3-amino-5-((2S)-3-methylbutan-2-yl)-7-(1-methyl-5-(4-(methylsulfonyl)piperazin-1-yl)-1H-pyrazol-3-yl)-1,5-dihydro-4H-pyrazolo[4,3-c]pyridin-4-one], for which the inhibition at 1 µM on TYK2 was determined as 100%; at JAK2, 98%; at JAK1 it was 98%; on JAK3, 99%.
Regarding `Cn1nc(-c2cn(C(C3CC3)C3CC3)c(=O)c3c(N)n[nH]c23)cc1N1CCC[C@@H]1CO` [Example 157, 3-amino-5-(dicyclopropylmethyl)-7-(5-((2R)-2-(hydroxymethyl)pyrrolidin-1-yl)-1-methyl-1H-pyrazol-3-yl)-1,5-dihydro-4H-pyrazolo[4,3-c]pyridin-4-one], the inhibition at 1 µM at TYK2 turned out to be 101%; at JAK2, 99%; on JAK1 it was 99%; on JAK3, 100%.
With `CC(=O)N1CCN(c2cc(-c3cn([C@@H](C)C(C)C)c(=O)c4c(N)n[nH]c34)nn2C)CC1` [Example 11, 7-(5-(4-acetylpiperazin-1-yl)-1-methyl-1H-pyrazol-3-yl)-3-amino-5-((2S)-3-methylbutan-2-yl)-1,5-dihydro-4H-pyrazolo[4,3-c]pyridin-4-one], the inhibition at 1 µM at TYK2 came to 100%; on JAK2, 99%; at JAK1, 98%; on JAK3, 99%.

Values taken from patent US9637483B2, “Heterocyclic compound” (TAKEDA PHARMACEUTICAL COMPANY LIMITED, priority 2013, dated 2017).
